Source: BindingDB's records for doi:10.1016/j.bmcl.2004.10.085 (Bristol-Myers Squibb Pharmaceutical Research Institute, 2004)

Biological target: T1, Androgen receptor (Homo sapiens, UniProt P10275)
T1 sequence (P10275 whole entry): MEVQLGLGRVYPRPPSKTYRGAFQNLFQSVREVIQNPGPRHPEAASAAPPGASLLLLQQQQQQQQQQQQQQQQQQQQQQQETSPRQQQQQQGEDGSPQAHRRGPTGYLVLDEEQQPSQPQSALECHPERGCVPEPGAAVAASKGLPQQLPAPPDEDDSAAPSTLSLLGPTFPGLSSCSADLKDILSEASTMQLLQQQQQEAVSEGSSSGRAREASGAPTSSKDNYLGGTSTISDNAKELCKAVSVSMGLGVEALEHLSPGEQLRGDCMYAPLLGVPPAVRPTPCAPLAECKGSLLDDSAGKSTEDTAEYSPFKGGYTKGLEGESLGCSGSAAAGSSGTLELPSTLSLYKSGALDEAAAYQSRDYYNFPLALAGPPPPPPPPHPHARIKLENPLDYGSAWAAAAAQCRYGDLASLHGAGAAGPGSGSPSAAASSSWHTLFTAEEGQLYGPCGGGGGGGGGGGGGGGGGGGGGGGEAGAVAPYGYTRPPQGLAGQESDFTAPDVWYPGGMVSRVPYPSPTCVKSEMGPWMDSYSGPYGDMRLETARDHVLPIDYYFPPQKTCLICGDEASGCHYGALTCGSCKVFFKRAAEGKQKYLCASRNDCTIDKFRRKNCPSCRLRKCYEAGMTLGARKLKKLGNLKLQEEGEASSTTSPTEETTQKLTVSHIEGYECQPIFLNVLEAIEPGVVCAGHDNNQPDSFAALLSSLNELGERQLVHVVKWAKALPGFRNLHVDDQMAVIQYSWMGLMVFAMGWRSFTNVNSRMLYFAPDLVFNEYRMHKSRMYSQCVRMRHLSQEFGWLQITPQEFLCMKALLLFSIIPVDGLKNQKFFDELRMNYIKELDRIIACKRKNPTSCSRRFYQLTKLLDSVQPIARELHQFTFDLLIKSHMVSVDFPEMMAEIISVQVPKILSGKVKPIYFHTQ
Test: Inhibition of androgen dependent human prostate cancer cell […] proliferation

Row | Structure (SMILES) | IC50 [nM]
1 | CN1C(=O)C2C=CC1c1c2c(O)n(-c2ccc([N+](=O)[O-])c3ccccc23)c1O [(2R,6R)-8-Methyl-4-(4-nitro-naphthalen-1-yl)-4,8-diaza-tricyclo[5.2.2.0*2,6*]undec-10-ene-3,5,9-trione] | 8460
2 | Oc1c2c(c(O)n1-c1ccc(Cl)c(Cl)c1)C1C=CC2C1 [(2R,6S)-4-(3,4-Dichloro-phenyl)-4-aza-tricyclo[5.2.1.0*2,6*]dec-8-ene-3,5-dione] | 180
3 | Oc1c2c(c(O)n1-c1cccc(C(F)(F)F)c1)C1C=CC2CC1 [(2R,6S)-4-(3-Trifluoromethyl-phenyl)-4-aza-tricyclo[5.2.2.0*2,6*]undec-8-ene-3,5-dione] | 0.4
4 | Oc1c2c(c(O)n1-c1cccc(C(F)(F)F)c1)C1C=CC2[C@H]2C[C@@H]12 [(2R,6S,8S,10R)-4-[3-(trifluoromethyl)phenyl]-4-azatetracyclo[5.3.2.0^{2,6}.0^{8,10}]dodec-11-ene-3,5-dione] | 148
5 | Oc1c2c(c(O)n1-c1cccc(C(F)(F)F)c1)C1CCCC2CC1 [(2S,6R)-4-(3-Trifluoromethyl-phenyl)-4-aza-tricyclo[5.3.2.0*2,6*]dodecane-3,5-dione] | 179
